Common to all, as to type: cell-based, human
Assay [1] relates to hyaluronan synthase (HAS3) gene expression. The assay is described as follows: HAS3 gene expression in tension-applied three-dimensional artificial skin (real-time PCR). Particulars: artificial skin of the present invention; 10 μM ATRA solution on gauze on epidermis for 1 hour, then 5 hours culture (6 hours after addition). How it is done:
The artificial skin was such that, on the 6th day of culture, this was replaced with a medium for assay use (Dulbecco's Modified Eagle's Medium containing 1 μM hydrocortisone, 5 μg/mL insulin, and 10% fetal bovine serum). On the 8th day of culture, gauze that had been impregnated with 0.2% HPC solution or 10 μM ATRA solution was placed on the surface of the epidermis, and this was cultured for 1 hour in a 5% CO2 incubator at 37° C. After 1 hour, the gauze was removed, and this was further cultured for 5 hours in a 5% CO2 incubator at 37° C. Following culture of the artificial skin for 6 hours, the artificial skin was removed from the container in such fashion as to not cause the epidermal tissue to be delaminated therefrom, and a razor was used to cut this in half. After using […] from an RNeasy Plus Mini Kit (manufactured by Qiagen) to dissolve tissue by pulverizing with beads, phenol chloroform was used to remove protein therefrom, following which column purification was carried out as directed by the RNeasy Plus Mini Kit protocol to obtain total RNA.
SuperScript VILO Master Mix (manufactured by Invitrogen) was used as directed by the attached manual to carry out synthesis of cDNA from the purified total RNA. […]

Assay [2] relates to elastin (ELN) gene expression. The assay is described as follows: Elastin gene expression in tension-applied three-dimensional artificial skin (real-time PCR). Particulars: artificial skins prepared using means of the present invention; 10 ng/mL TGF-β in assay medium, 48 hours. How it is done:
(§1) The artificial skin was such that, on the 6th day of culture, this was replaced with a medium for assay use (Dulbecco's Modified Eagle's Medium containing 1 μM hydrocortisone, 5 μg/mL insulin, and 10% fetal bovine serum). […] After using RNT solution from an RNeasy Plus Mini Kit (manufactured by Qiagen) to dissolve tissue by pulverizing with beads, phenol chloroform was used to remove protein therefrom, following which column purification was carried out as directed by the RNeasy Plus Mini Kit protocol to obtain total RNA.
(§2) SuperScript VILO Master Mix (manufactured by Invitrogen) was used as directed by the attached manual to carry out synthesis of cDNA from the purified total RNA. The synthesized cDNA was mixed with SYBR Premix Ex Taq (manufactured by Takara) and primer mix (a mixture of forward and reverse primers), 12.5 μL of reaction solution was prepared in each well of a 96-well plate for PCR use, and a QuantStudio 12K Flex (Applied Biosystems) was used to carry out real-time PCR. The real-time PCR reaction was such that 40 cycles comprising 95° C. for 30 seconds for initial denaturation, and 95° C. for 5 seconds and 60° C. for 31 seconds for the PCR reaction, were carried out. […]

The test system of assay [3] is collagen 1A1 (COL1A1) gene expression. The assay is described as follows: Collagen 1A1 gene expression in tension-applied three-dimensional artificial skin (real-time PCR). As to conditions: artificial skins prepared using means of the present invention; 10 ng/mL TGF-β in assay medium, 48 hours. As to the method: as §1, §2

For `CC1=C(/C=C/C(C)=C/C=C/C(C)=C/C(=O)O)C(C)(C)CCC1` [ATRA], in assay [1], the “increase of HAS3 gene expression as compared with the situation when unstimulated” value is given as ≥ 3 ×. Regarding TGF-β, the “increase of elastin (ELN) gene expression as compared with the situation when unstimulated” value in assay [2] is ≥ 3 ×. Further, the “increase of COL1A1 gene expression as compared with the situation when unstimulated” value in assay [3] was ≥ 1.5 ×.

(Values after patent US20250101356A1, “CONTAINER FOR PRODUCING TENSION-APPLIED THREE-DIMENSIONAL ARTIFICIAL SKIN AND PRODUCTION METHOD THEREOF” (RIKEN, priority 2022, published 2025).)
